Laboratory results as given in US20130244995A1, “CALCIUM-SENSING RECEPTOR-ACTIVE COMPOUNDS” (LEO PHARMA A/S, priority 2010, published 2013).

Molecular target: T1, human CaSR (Homo sapiens, UniProt P41180)
T1 sequence (P41180 20-1078): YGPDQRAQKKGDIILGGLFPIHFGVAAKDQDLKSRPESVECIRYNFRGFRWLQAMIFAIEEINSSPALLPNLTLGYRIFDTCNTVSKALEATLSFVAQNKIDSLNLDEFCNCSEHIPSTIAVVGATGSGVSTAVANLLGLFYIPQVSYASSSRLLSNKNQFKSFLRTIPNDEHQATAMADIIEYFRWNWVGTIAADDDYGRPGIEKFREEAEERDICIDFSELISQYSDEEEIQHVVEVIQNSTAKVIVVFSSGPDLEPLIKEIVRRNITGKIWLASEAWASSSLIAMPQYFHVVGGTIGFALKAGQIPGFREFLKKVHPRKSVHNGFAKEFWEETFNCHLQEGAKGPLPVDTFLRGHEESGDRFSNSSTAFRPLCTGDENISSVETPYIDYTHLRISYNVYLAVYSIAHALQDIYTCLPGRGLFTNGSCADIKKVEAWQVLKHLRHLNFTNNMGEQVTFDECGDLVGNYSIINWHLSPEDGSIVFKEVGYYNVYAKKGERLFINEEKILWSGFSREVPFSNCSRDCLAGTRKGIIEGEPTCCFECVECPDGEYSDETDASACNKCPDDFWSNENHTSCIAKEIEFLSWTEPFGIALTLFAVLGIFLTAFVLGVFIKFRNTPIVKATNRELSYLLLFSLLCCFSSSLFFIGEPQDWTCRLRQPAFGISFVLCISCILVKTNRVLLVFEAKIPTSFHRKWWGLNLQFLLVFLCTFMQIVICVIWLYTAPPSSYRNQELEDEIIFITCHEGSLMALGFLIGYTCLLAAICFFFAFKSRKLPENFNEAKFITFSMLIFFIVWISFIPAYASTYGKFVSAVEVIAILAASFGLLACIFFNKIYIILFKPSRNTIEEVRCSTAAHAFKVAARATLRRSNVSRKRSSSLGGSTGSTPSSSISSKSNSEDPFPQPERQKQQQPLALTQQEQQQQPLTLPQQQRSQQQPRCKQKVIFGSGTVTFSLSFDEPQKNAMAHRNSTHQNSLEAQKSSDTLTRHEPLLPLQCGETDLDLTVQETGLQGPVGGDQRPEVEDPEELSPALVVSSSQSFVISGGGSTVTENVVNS
Assay: Functional whole cell assay (modulation of human CaSR), IP1 accumulation in CHO-K1 cells
Type: cell-based
Conditions: CHO-K1 cells stably expressing human CaSR, final Ca2+ 1.9 mM, IP1 (IP-One htrf)
Description: The assay investigates a compound's functional ability to act as a biological positive modulator on the human CaSR. Activation of the receptor expressed on CHO-K1 cells is detected through the G alpha q pathway, the activation of phospholipase C and the accumulation of intracellular inositol phosphate (IP) as described earlier [Sandrine Ferry, Bruno Chatel, Robert H. Dodd, Christine Lair, Danielle Gully, Jean-Pierre Maffrand, and Martial Ruat. Effects of Divalent Cations and of a Calcimimetic on Adrenocorticotropic Hormone Release in Pituitary Tumor Cells. Biological and Biophysical Research Comm., 238, 866-873 (1997)]. The human CaSR is stably expressed on a CHO-K1 cell clone, stimulated with a basal level of calcium and challenged with the tested compound. The level of IP1 is determined using the IP-One Terbium htrf kit (Cisbio, France). CHO-K1 cells not transfected with the CaSR fail to elicit an IP1 response upon calcium and/or compound stimulation.
The ORF coding for the human CaSR (genebank: NM_000388) was acquired from Invitrogen Corp, USA and subsequently cloned into the mammalian expression vector pCDA3.1.
CHO-K1 cells were transfected using Lipofectamine according to manufacturer's protocol (400.000 cells/well were seeded in a 6-well plate and transfected after 24 hours using 2 μg DNA and 5 μl lipofectamine). After another 24 hours the cells were detached, seeded and subjected to 1mg/ml of G-418. Following 7 days growth single clones were picked, the CaSR expression evaluated using the 5C10 antibody against CaSR, the clones with the highest expression were selected and tested for functional response. The preferred clone was cultured according to standard procedures described in ATCC (American Type Culture Collection) protocols for CHO-K1 with the addition of 500 μg/ml G-418.
On the assay day, cells were thawed, harvested and resuspended to 4*10^6 cells/ml in stimulation buffer (containing: Hepes 10mM, MgCl2 0.5mM, KCl 4.2 mM, NaCl 146 mM, glucose 5.5 mM, LiCl 50 mM, BSA 0.5% at pH 7.4). Ten μl cell solution was pipetted into wells of a white 384-well plate (Perkin Elmer Optiplate) containing 2 μl compound diluted in assay buffer (containing: Hepes 10 mM, MgCl2 0.5mM, KCl 4.2mM, NaCl 146mM, glucose 5.5 mM, LiCl 50 mM, CaCl2 11.4 mM at pH 7.4), resulting in a final Ca^2+ concentration of 1.9 mM. After compound stimulation for 1 hour at 37° C. and 15 min at room temperature, 10 ul of IP-One assay detection reagent (prepared as described by the IP-One assay kit manufacturer) was added and the plate was incubated for another 1 hour at room temperature. Finally the plate was read using a Perkin Elmer EnVision, according to the protocol supplied by the IP-One assay kit manufacturer. The FRET ratio was calculated by dividing the 665 nm emission signal with that of the 615 nm.
The molar concentration of a compound that produces 50% of the maximum agonistic response (the […] value) is calculated according to the equation “General sigmoidal curve with Hill slope, a to d” (Equation 1). This model describes a sigmoidal curve with an adjustable baseline. The equation can be used to fit curves where response is either increasing or decreasing with respect to the independent variable, X. […]
y=(a−d)/(1+(x/c)̂b)+d Equation 1. x=concentration of tested compound […]
a=min response as compound concentration approaches 0 d=max response as concentration of tested compound is increasing […]
b=Hill coefficient or curve slope
Assay results using compounds of the present invention indicate that compounds of the present invention are potent modulators of CaSR, thus making them potentially useful in the treatment of diseases related to kidneys or bones.

EC50, 0.2 to 1 µM:
COc1cc([C@@H](C)N[C@H]2CC[C@@H](c3ccc(CC(=O)NCCNS(C)(=O)=O)cc3)C2)ccc1F [Compound 102, 2-[4-[(1R,3S)-3-[[(1R)-1-(4-Fluoro-3-methoxy-phenyl)ethyl]amino]-cyclopentyl]phenyl]-N-[2-(methanesulfonamido)ethyl]acetamide; formic acid]

EC50, < 0.2 µM:
COc1cc([C@@H](C)N[C@H]2CC[C@@H](c3ccc(CC(=O)N4CC(O)C4)cc3)C2)ccc1F [Compound 109, 2-[4-[(1R,3S)-3-[[(1R)-1-(4-Fluoro-3-methoxy-phenyl)ethyl]amino]-cyclopentyl]phenyl]-1-(3-hydroxyazetidin-1-yl)ethanone]
C[C@@H](N[C@H]1CC[C@@H](c2ccc(CC(=O)NCCS(N)(=O)=O)cc2)C1)c1cccc2c1OCO2 [Compound 104, 2-[4-[(1R,3S)-3-[[(1R)-1-(1,3-Benzodioxol-4-yl)ethyl]amino]-cyclo-pentyl]-phenyl]-N-(2-sulfamoylethyl)acetamide]
CCOc1cccc([C@@H](C)N[C@H]2CC[C@@H](c3ccc(CC(=O)NCCS(N)(=O)=O)cc3)C2)c1 [Compound 106, 2-[4-[(1R,3S)-3-[[(1R)-1-(3-Ethoxyphenyl)ethyl]amino]cyclopentyl]phenyl]-N-(2-sulfamoylethyl)acetamide]
COc1cc([C@@H](C)N[C@H]2CC[C@@H](c3ccc(CC(=O)NCCNCCO)cc3)C2)ccc1F [Compound 108, 2-[4-[(1R,3S)-3-[[(1R)-1-(4-Fluoro-3-methoxy-phenyl)ethyl]amino]-cyclopentyl]phenyl]-N-[2-(2-hydroxyethylamino)ethyl]acetamide]
COc1cc([C@@H](C)N[C@H]2CC[C@@H](c3ccc(CC(=O)N4CCC(N)CC4)cc3)C2)ccc1F [Compound 112, 1-(4-Amino-1-piperidyl)-2-[4-[(1R,3S)-3-[[(1R)-1-(4-fluoro-3-methoxy-phenyl)ethyl]amino]cyclopentyl]phenyl]ethanone]
COc1cc([C@@H](C)N[C@H]2CC[C@@H](c3ccc(CC(=O)N4CCCNCC4)cc3)C2)ccc1F [Compound 110, 1-(1,4-Diazepan-1-yl)-2-[4-[(1R,3S)-3-[[(1R)-1-(4-fluoro-3-methoxy-Phenyl)ethyl]amino]cyclopentyl]phenyl]ethanone]
COc1cc([C@@H](C)N[C@H]2CC[C@@H](c3ccc(CC(=O)NCCS(N)(=O)=O)cc3)C2)ccc1F [Compound 103, 2-[4-[(1R,3S)-3-[[(1R)-1-(4-Fluoro-3-methoxy-phenyl)ethyl]amino]-cyclopentyl]phenyl]-N-(2-sulfamoylethyl)acetamide; formic acid]
